Measured values from PMC12102759 (Protein Science : A Publication of the Protein Society, 2025).

Test system: G3BP1 NFT2
Assay type: binding, human
Settings: library DMS-BM; bait G3BP1 NFT2; prey CAPRIN1; AQMQGPYNFIQDSM(averaged): mean of the two overlapping peptides over the shared positions

Substance | DMS position-specific score (PSSM value) per amino-acid substitution, averaged
AQMQGPYNFIQDSM(averaged) N8M (AQMQGPYMFIQDSM) | 0.01948
AQMQGPYNFIQDSM(averaged) Q2G (AGMQGPYNFIQDSM) | 0.001251
AQMQGPYNFIQDSM(averaged) I10L (AQMQGPYNFLQDSM) | 0.1472
AQMQGPYNFIQDSM(averaged) D12I (AQMQGPYNFIQISM) | 0.0003022
AQMQGPYNFIQDSM(averaged) N8A (AQMQGPYAFIQDSM) | 0.06427
AQMQGPYNFIQDSM(averaged) I10Y (AQMQGPYNFYQDSM) | 0.003704
AQMQGPYNFIQDSM(averaged) M14R (AQMQGPYNFIQDSR) | 0.003652
AQMQGPYNFIQDSM(averaged) Q11H (AQMQGPYNFIHDSM) | 0.008689
AQMQGPYNFIQDSM(averaged) N8Q (AQMQGPYQFIQDSM) | 0.04567
AQMQGPYNFIQDSM(averaged) Y7R (AQMQGPRNFIQDSM) | 0
AQMQGPYNFIQDSM(averaged) I10V (AQMQGPYNFVQDSM) | 0.004849
AQMQGPYNFIQDSM(averaged) Q4W (AQMWGPYNFIQDSM) | 0.01813
AQMQGPYNFIQDSM(averaged) M14F (AQMQGPYNFIQDSF) | 0.1772
AQMQGPYNFIQDSM(averaged) P6S (AQMQGSYNFIQDSM) | 0.00881
AQMQGPYNFIQDSM(averaged) G5S (AQMQSPYNFIQDSM) | 0.1168
AQMQGPYNFIQDSM(averaged) D12V (AQMQGPYNFIQVSM) | 0.005056
AQMQGPYNFIQDSM(averaged) D12Q (AQMQGPYNFIQQSM) | 0.008788
AQMQGPYNFIQDSM(averaged) P6P | 0.3942
AQMQGPYNFIQDSM(averaged) Q11A (AQMQGPYNFIADSM) | 0.001301
AQMQGPYNFIQDSM(averaged) S13E (AQMQGPYNFIQDEM) | 0.01271
AQMQGPYNFIQDSM(averaged) Q2M (AMMQGPYNFIQDSM) | 0.123
AQMQGPYNFIQDSM(averaged) I10T (AQMQGPYNFTQDSM) | 0.01974
AQMQGPYNFIQDSM(averaged) Q11M (AQMQGPYNFIMDSM) | 0.0771
AQMQGPYNFIQDSM(averaged) M14I (AQMQGPYNFIQDSI) | 0.02696
AQMQGPYNFIQDSM(averaged) I10I | 0.4804
AQMQGPYNFIQDSM(averaged) P6M (AQMQGMYNFIQDSM) | 0.05352
AQMQGPYNFIQDSM(averaged) Q4Y (AQMYGPYNFIQDSM) | 0.002959

Substance | DMS position-specific score (PSSM value) per amino-acid substitution, averaged
AQMQGPYNFIQDSM(averaged) S13F (AQMQGPYNFIQDFM) | 0.05713
AQMQGPYNFIQDSM(averaged) Q2H (AHMQGPYNFIQDSM) | 0.02779
AQMQGPYNFIQDSM(averaged) S13N (AQMQGPYNFIQDNM) | 0.02537
AQMQGPYNFIQDSM(averaged) M3P (AQPQGPYNFIQDSM) | 0.0009459
AQMQGPYNFIQDSM(averaged) D12E (AQMQGPYNFIQESM) | 0.04092
AQMQGPYNFIQDSM(averaged) M14T (AQMQGPYNFIQDST) | 0.005834
AQMQGPYNFIQDSM(averaged) D12F (AQMQGPYNFIQFSM) | 0.004771
AQMQGPYNFIQDSM(averaged) P6K (AQMQGKYNFIQDSM) | 0.01016
AQMQGPYNFIQDSM(averaged) Q4P (AQMPGPYNFIQDSM) | 0.003604
AQMQGPYNFIQDSM(averaged) M14S (AQMQGPYNFIQDSS) | 0.001956
AQMQGPYNFIQDSM(averaged) Y7A (AQMQGPANFIQDSM) | 0
AQMQGPYNFIQDSM(averaged) M14K (AQMQGPYNFIQDSK) | 0.0006833
AQMQGPYNFIQDSM(averaged) I10E (AQMQGPYNFEQDSM) | 0.0004486
AQMQGPYNFIQDSM(averaged) Q2Q | 0.0522
AQMQGPYNFIQDSM(averaged) Q2R (ARMQGPYNFIQDSM) | 0.001052
AQMQGPYNFIQDSM(averaged) G5M (AQMQMPYNFIQDSM) | 0.1116
AQMQGPYNFIQDSM(averaged) Q11F (AQMQGPYNFIFDSM) | 0.006502
AQMQGPYNFIQDSM(averaged) Q4M (AQMMGPYNFIQDSM) | 0.02121
AQMQGPYNFIQDSM(averaged) Q4H (AQMHGPYNFIQDSM) | 0.0707
AQMQGPYNFIQDSM(averaged) A1N (NQMQGPYNFIQDSM) | 0.01838
AQMQGPYNFIQDSM(averaged) N8L (AQMQGPYLFIQDSM) | 0.06185
AQMQGPYNFIQDSM(averaged) M3G (AQGQGPYNFIQDSM) | 0.02919
AQMQGPYNFIQDSM(averaged) M3Y (AQYQGPYNFIQDSM) | 0.01355
AQMQGPYNFIQDSM(averaged) D12R (AQMQGPYNFIQRSM) | 0.003499
AQMQGPYNFIQDSM(averaged) D12L (AQMQGPYNFIQLSM) | 0.008174
AQMQGPYNFIQDSM(averaged) A1A | 0.1937
AQMQGPYNFIQDSM(averaged) F9F | 0.9484

Substance | DMS position-specific score (PSSM value) per amino-acid substitution, averaged
AQMQGPYNFIQDSM(averaged) G5K (AQMQKPYNFIQDSM) | 0.001793
AQMQGPYNFIQDSM(averaged) Q11I (AQMQGPYNFIIDSM) | 0
AQMQGPYNFIQDSM(averaged) P6N (AQMQGNYNFIQDSM) | 0.03046
AQMQGPYNFIQDSM(averaged) A1Q (QQMQGPYNFIQDSM) | 0.1157
AQMQGPYNFIQDSM(averaged) Q2D (ADMQGPYNFIQDSM) | 0.02749
AQMQGPYNFIQDSM(averaged) D12D | 0.268
AQMQGPYNFIQDSM(averaged) A1I (IQMQGPYNFIQDSM) | 0.00266
AQMQGPYNFIQDSM(averaged) Y7S (AQMQGPSNFIQDSM) | 0.06469
AQMQGPYNFIQDSM(averaged) G5V (AQMQVPYNFIQDSM) | 0.008337
AQMQGPYNFIQDSM(averaged) Q2Y (AYMQGPYNFIQDSM) | 0.05198
AQMQGPYNFIQDSM(averaged) N8K (AQMQGPYKFIQDSM) | 0.007096
AQMQGPYNFIQDSM(averaged) P6I (AQMQGIYNFIQDSM) | 0.007006
AQMQGPYNFIQDSM(averaged) Q11K (AQMQGPYNFIKDSM) | 0.0002863
AQMQGPYNFIQDSM(averaged) S13H (AQMQGPYNFIQDHM) | 0
AQMQGPYNFIQDSM(averaged) Q4D (AQMDGPYNFIQDSM) | 0.3261
AQMQGPYNFIQDSM(averaged) P6T (AQMQGTYNFIQDSM) | 0.1796
AQMQGPYNFIQDSM(averaged) S13W (AQMQGPYNFIQDWM) | 0.01323
AQMQGPYNFIQDSM(averaged) S13K (AQMQGPYNFIQDKM) | 0
AQMQGPYNFIQDSM(averaged) I10Q (AQMQGPYNFQQDSM) | 0.01591
AQMQGPYNFIQDSM(averaged) M3V (AQVQGPYNFIQDSM) | 0.3519
AQMQGPYNFIQDSM(averaged) N8W (AQMQGPYWFIQDSM) | 0.1126
AQMQGPYNFIQDSM(averaged) I10K (AQMQGPYNFKQDSM) | 0.0003536
AQMQGPYNFIQDSM(averaged) A1Y (YQMQGPYNFIQDSM) | 0.1391
AQMQGPYNFIQDSM(averaged) Q4V (AQMVGPYNFIQDSM) | 0.1002
AQMQGPYNFIQDSM(averaged) P6F (AQMQGFYNFIQDSM) | 0.002152
AQMQGPYNFIQDSM(averaged) I10M (AQMQGPYNFMQDSM) | 0.03721
